Results: patent publication US20020086281A1, “Detection of neurodegenerative diseases, in vitro screening assays” (priority 1998, published 2002)

Columns and labels:
PD lymphoblasts = assay: Microphysiometry of PD lymphoblasts; format: cell-based, human; conditions: PD lymphoblasts compared with controls; FIG. 5A-5D
Source text: (§1) The rate at which cells excrete protons (the acidification rate) is closely linked to the rate at which they convert nutrients to energy. Because energy metabolism is coupled to ATP consumption, any event that perturbs ATP levels, such as receptor activation or calcium influx, causes a change in energy metabolism and, therefore, an alteration in proton excretion. In addition, receptor activation may also directly affect proton excretion by altering Na/H exchange. A typical microphysiometer, such as the Cytosensor™ (Molecular Devices), uses a silicon-based sensor to measure the rate of proton excretion from 10^4-10^6 cells. Cells are contained in a 3 μL flow chamber in aqueous contact with the pH-sensitive surface of a light-sensitive potentiometric sensor. Flow of medium (with low buffering capacity) and test compounds are determined by a series of microprocessor-controlled pumps. The extracellular acidification rate is determined by measuring the decrease in pH that occurs as acidic metabolites accumulate during brief halts in the flow of medium. The degree of stimulation of the basal acidification is calculated and plotted as a per cent of the basal acidification rate. The sensor takes a voltage measurement that is linearly related to pH. Typically, during a 30-60 sec halt in flow, pH will decrease less than 0.1 pH unit. Reproducible and robust responses are obtained to metabolic inhibitors, growth factors and ionophores in lymphoblast lines. Because virtually any manipulation alters proton excretion, it is relatively easy to determine the types of stimuli to which disease cell lines respond abnormally. […]
(§2) Lymphoblasts are suspended in agarose entrapment solution at a density of 5×10^5 cells/10 μl, then are plated onto chamber inserts, and allowed to solidify for 20 minutes. […] The rate of acidification is calculated as the slope of a linear least squares fit to the relation of pH versus time during the pump's off period. […]

sporadic AD lymphoblasts = assay: Microphysiometry (acidification rate) of sporadic AD lymphoblasts; format: cell-based, human; conditions: sporadic AD lymphoblasts compared with controls; FIG. 1A-1D
Source text: as §1, with “lines.” for “lines. Because virtually any manipulation alters proton excretion, it is relatively easy to determine the types of stimuli to which disease cell lines respond abnormally.”
Alzheimer's disease: Lymphoblast cell lines were generated from blood samples obtained from patients followed in the Emory Alzheimer's Disease Center. All patients have been evaluated by detailed neurological and neuropsychometric examinations. […]
as §2

[1] = test system: PC12 cells transfected with two mutant forms of PS1; format: cell-based, Rat; conditions: PC12 cells transfected with mutant presenilin-1; FIG. 2A-2D
Source text: (§3) The rate at which cells excrete protons (the acidification rate) is closely linked to the rate at which they convert nutrients to energy. Because energy metabolism is coupled to ATP consumption, any event that perturbs ATP levels, such as receptor activation or calcium influx, causes a change in energy metabolism and, therefore, an alteration in proton excretion. In addition, receptor activation may also directly affect proton excretion by altering Na/H exchange. A typical microphysiometer, such as the Cytosensor™ (Molecular Devices), uses a silicon-based sensor to measure the rate of proton excretion from 10^4-10^6 cells. Cells are contained in a 3 μL flow chamber in aqueous contact with the pH-sensitive surface of a light-sensitive potentiometric sensor. Flow of medium (with low buffering capacity) and test compounds are determined by a series of microprocessor-controlled pumps. The extracellular acidification rate is determined by measuring the decrease in pH that occurs as acidic metabolites accumulate during brief halts in the flow of medium. The degree of stimulation of the basal acidification is calculated and plotted as a per cent of the basal acidification rate. The sensor takes a voltage measurement that is linearly related to pH. Typically, during a 30-60 sec halt in flow, pH will decrease less than 0.1 pH unit. Reproducible and robust responses are obtained to metabolic inhibitors, growth factors and ionophores in lymphoblast lines. Because virtually any manipulation alters proton excretion, it is relatively easy to determine the types of stimuli to which disease cell lines respond abnormally.
Rat adrenal pheochromocytoma PC 12 cells were stably transfected with PS1 cDNA cloned behind the CMV promoter in pcDNA3. See, e.g., Lah, J. J. et al., J. Neurosci. […]
as §2

[2] = test system: LHON 14459 mutation lymphoblasts; assay: Microphysiometry of LHON cells, 14459 mutation; format: cell-based, human; conditions: LHON 14459 mutation cells compared with control; FIG. 4A-4E
Source text: as §3
(§4) LHON: Previous work at Emory University has identified causative mitochondrial DNA mutations in LHON patients. Well-characterized LHON patient cell lines have been generated and banked. These cell lines have been characterized by molecular genetic, cellular respiration and enzymology studies. The patient cell lines were obtained from the Emory University Clinical Research Center (Emory University, Atlanta, Ga.).
(§5) Patient lymphocytes are immortalized using the technique of Neitzel H, Human Genetics 73:320-326 (1986). In brief, the lymphocytes are removed from the buffy coat layer following Histopaque density separation. […]
as §2

[3] = test system: LHON 3460 mutation lymphoblasts; assay: Microphysiometry of LHON cells, 3460 mutation; format: cell-based, human; conditions: LHON 3460 mutation cells compared with control; FIG. 4A-4E
Source text: as §3, §4, §5, §2

control cells = assay: Microphysiometry of control cells, ionomycin response after rotenone; format: cell-based, human; conditions: control cells exposed to rotenone; FIG. 3
Source text: as §1, with “Cells are contained in a 3 μL flow chamber in aqueous contact with the pH-sensitive surface of a light-sensitive potentiometric sensor.” left out, “rate.” for “rate. The sensor takes a voltage measurement that is linearly related to pH. Typically, during a 30-60 sec halt in flow, pH will decrease less than 0.1 pH unit. Reproducible and robust responses are obtained to metabolic inhibitors, growth factors and ionophores in lymphoblast lines. Because virtually any manipulation alters proton excretion, it is relatively easy to determine the types of stimuli to which disease cell lines respond abnormally.”
as §2

HD fibroblasts = assay: Microphysiometry of HD cells; format: cell-based, human; conditions: HD cells compared with control cells; FIG. 3

Compound	microphysiometric response to the inhibitor (PD lymphoblasts)	microphysiometric response (stimulation of acidification rate) to the inhibitor (sporadic AD lymphoblasts)	microphysiometric response to the inhibitor [1]	microphysiometric response to the inhibitor or ionophore [2]	microphysiometric response to the inhibitor or ionophore [3]	reproduction of the HD-type altered response to ionomycin (control cells)	microphysiometric response to the calcium ionophore (HD fibroblasts)
O=C(O)CC(=O)O [malonate]	do not differ substantially from controls	do not differ substantially from controls	normal response				
antimycin-A	do not differ substantially from controls	markedly blunted		markedly depressed	markedly depressed		
O=C(CC(=O)C(F)(F)F)c1cccs1 [TTFA, Thenoyltrifluoroacetone]				no difference between control and patient lymphoblast responses	no difference between control and patient lymphoblast responses		
C=C(C)[C@H]1Cc2c(ccc3c2O[C@@H]2COc4cc(OC)c(OC)cc4[C@@H]2C3=O)O1 [rotenone]	markedly blunted	markedly blunted	similarly depressed response	markedly depressed	virtually absent	can be reproduced in control cells	
CN(C)C(=O)Nc1ccc(Cl)c(Cl)c1 [diuron]			similarly depressed response				
C[C@H](CCC(=O)O)C[C@H](C)C[C@H](C)C(=O)/C=C(\O)[C@H](C)C[C@H](C)C/C=C/[C@@H](C)[C@@H](O)[C@@H](C)[C@@H](O)C[C@@H]1CC[C@@](C)([C@H]2CC[C@@](C)([C@@H](C)O)O2)O1 [ionomycin]				abnormal	abnormal		abnormal responses
